Source: ChEMBL document CHEMBL3044595, “Bioactivity of latifolin and its derivatives against termites and fungi” (2009)
The source made the active and inactive calls. No cut-off for these calls is given here.

Tested on: Trametes versicolor
Experiment: Antifungal activity against Trametes versicolor NBRC 30340 assessed as mycelial growth inhibition at 5 ug/cm'2 at 25.5 degC after 5 days
Type: functional

SMILES	inhibition (INH)
C=C[C@H](c1ccccc1O)c1cc(O)c(OC)cc1OC [LATIFOLIN]	79.1%
C=C[C@H](c1ccccc1OC)c1cc(OC)c(OC)cc1OC [LATIFOLIN DIMETHYL ETHER]	15.3%
C=C[C@H](c1ccccc1O)c1cc(OC)c(OC)cc1OC [5-O-METHYLLATIFOLIN]	13.2%
C=C[C@@H](c1cc(OC(C)=O)c(OC)cc1OC)c1ccccc1OC(C)=O [LATIFOLIN DIACETATE]	21.8%
C=C[C@H](c1ccccc1OC)c1cc(O)c(OC)cc1OC [2'-O-METHYLLATIFOLIN]	16.5%

Tested on: Cladosporium cladosporioides
Experiment: Antifungal activity against Cladosporium cladosporioides NBRC 6348 assessed as diameter of mycelial growth at 5 ug/cm'2 at 25.5 degC after 20 days
Type: functional

SMILES	Activity
C=C[C@H](c1ccccc1O)c1cc(O)c(OC)cc1OC [LATIFOLIN]	26.2 mm
C=C[C@H](c1ccccc1OC)c1cc(OC)c(OC)cc1OC [LATIFOLIN DIMETHYL ETHER]	29.3 mm
C=C[C@H](c1ccccc1O)c1cc(OC)c(OC)cc1OC [5-O-METHYLLATIFOLIN]	29.2 mm
C=C[C@@H](c1cc(OC(C)=O)c(OC)cc1OC)c1ccccc1OC(C)=O [LATIFOLIN DIACETATE]	28.7 mm
C=C[C@H](c1ccccc1OC)c1cc(O)c(OC)cc1OC [2'-O-METHYLLATIFOLIN]	30 mm

Tested on: Rhizopus arrhizus
Experiment: Antifungal activity against Rhizopus oryzae NBRC 31005 assessed as mycelial growth inhibition at 5 ug/cm'2 at 25.5 degC after 36 hr
Type: functional, organism-based

SMILES	inhibition
C=C[C@H](c1ccccc1O)c1cc(O)c(OC)cc1OC [LATIFOLIN]	inactive
C=C[C@H](c1ccccc1OC)c1cc(OC)c(OC)cc1OC [LATIFOLIN DIMETHYL ETHER]	inactive
C=C[C@H](c1ccccc1O)c1cc(OC)c(OC)cc1OC [5-O-METHYLLATIFOLIN]	inactive
C=C[C@@H](c1cc(OC(C)=O)c(OC)cc1OC)c1ccccc1OC(C)=O [LATIFOLIN DIACETATE]	inactive
C=C[C@H](c1ccccc1OC)c1cc(O)c(OC)cc1OC [2'-O-METHYLLATIFOLIN]	inactive

Tested on: Reticulitermes speratus
Experiment: Antitermite activity against Reticulitermes speratus in compound pretreated paper disks assessed as mortality at 3% measured after 14 days
Type: functional

SMILES	mortality
C=C[C@H](c1ccccc1O)c1cc(O)c(OC)cc1OC [LATIFOLIN]	26.7%
C=C[C@H](c1ccccc1OC)c1cc(OC)c(OC)cc1OC [LATIFOLIN DIMETHYL ETHER]	56.7%
C=C[C@H](c1ccccc1O)c1cc(OC)c(OC)cc1OC [5-O-METHYLLATIFOLIN]	30%
C=C[C@@H](c1cc(OC(C)=O)c(OC)cc1OC)c1ccccc1OC(C)=O [LATIFOLIN DIACETATE]	53.3%
C=C[C@H](c1ccccc1OC)c1cc(O)c(OC)cc1OC [2'-O-METHYLLATIFOLIN]	46.7%

Tested on: Fomitopsis palustris
Experiment: Antifungal activity against Fomitopsis palustris NBRC 30339 assessed as diameter of mycelial growth at 5 ug/cm'2 at 25.5 degC after 14 days
Type: functional

SMILES	Activity
C=C[C@H](c1ccccc1O)c1cc(O)c(OC)cc1OC [LATIFOLIN]	32.5 mm
C=C[C@H](c1ccccc1OC)c1cc(OC)c(OC)cc1OC [LATIFOLIN DIMETHYL ETHER]	57 mm
C=C[C@H](c1ccccc1O)c1cc(OC)c(OC)cc1OC [5-O-METHYLLATIFOLIN]	52.3 mm
C=C[C@@H](c1cc(OC(C)=O)c(OC)cc1OC)c1ccccc1OC(C)=O [LATIFOLIN DIACETATE]	51.3 mm
C=C[C@H](c1ccccc1OC)c1cc(O)c(OC)cc1OC [2'-O-METHYLLATIFOLIN]	42.5 mm

Tested on: Fomitopsis palustris
Experiment: Antifungal activity against Fomitopsis palustris NBRC 30339 assessed as mycelial growth inhibition at 5 ug/cm2 at 25.5 degC after 14 days
Type: functional

SMILES	inhibition (INH)
C=C[C@H](c1ccccc1O)c1cc(O)c(OC)cc1OC [LATIFOLIN]	37.5%
C=C[C@H](c1ccccc1OC)c1cc(OC)c(OC)cc1OC [LATIFOLIN DIMETHYL ETHER]	-9.6%
C=C[C@H](c1ccccc1O)c1cc(OC)c(OC)cc1OC [5-O-METHYLLATIFOLIN]	-0.5%
C=C[C@@H](c1cc(OC(C)=O)c(OC)cc1OC)c1ccccc1OC(C)=O [LATIFOLIN DIACETATE]	1.4%
C=C[C@H](c1ccccc1OC)c1cc(O)c(OC)cc1OC [2'-O-METHYLLATIFOLIN]	18.3%

Tested on: Reticulitermes speratus
Experiment: Ratio of antifeedant activity for compound to antifeedant activity for latifolin against Reticulitermes speratus at 3% measured after 14 days
Type: functional

SMILES	Ratio
C=C[C@H](c1ccccc1OC)c1cc(OC)c(OC)cc1OC [LATIFOLIN DIMETHYL ETHER]	3.42
C=C[C@H](c1ccccc1O)c1cc(OC)c(OC)cc1OC [5-O-METHYLLATIFOLIN]	3.25
C=C[C@@H](c1cc(OC(C)=O)c(OC)cc1OC)c1ccccc1OC(C)=O [LATIFOLIN DIACETATE]	2.89
C=C[C@H](c1ccccc1OC)c1cc(O)c(OC)cc1OC [2'-O-METHYLLATIFOLIN]	1.98

Tested on: Reticulitermes speratus
Experiment: Antifeedant activity against Reticulitermes speratus in compound pretreated paper disks assessed as mass loss of the paper disk at 3% measured after 14 days (reference value: 7.67 mg)
Type: functional

SMILES	Activity
C=C[C@H](c1ccccc1O)c1cc(O)c(OC)cc1OC [LATIFOLIN]	0.39 mg
C=C[C@H](c1ccccc1OC)c1cc(OC)c(OC)cc1OC [LATIFOLIN DIMETHYL ETHER]	1.27 mg
C=C[C@H](c1ccccc1O)c1cc(OC)c(OC)cc1OC [5-O-METHYLLATIFOLIN]	1.29 mg
C=C[C@@H](c1cc(OC(C)=O)c(OC)cc1OC)c1ccccc1OC(C)=O [LATIFOLIN DIACETATE]	1.13 mg
C=C[C@H](c1ccccc1OC)c1cc(O)c(OC)cc1OC [2'-O-METHYLLATIFOLIN]	0.82 mg

Tested on: Reticulitermes speratus
Experiment: Ratio of antitermite activity for compound to antitermite activity for latifolin against Reticulitermes speratus at 3% measured after 14 days
Type: functional

SMILES	Ratio
C=C[C@H](c1ccccc1OC)c1cc(OC)c(OC)cc1OC [LATIFOLIN DIMETHYL ETHER]	2.13
C=C[C@H](c1ccccc1O)c1cc(OC)c(OC)cc1OC [5-O-METHYLLATIFOLIN]	1.13
C=C[C@@H](c1cc(OC(C)=O)c(OC)cc1OC)c1ccccc1OC(C)=O [LATIFOLIN DIACETATE]	2
C=C[C@H](c1ccccc1OC)c1cc(O)c(OC)cc1OC [2'-O-METHYLLATIFOLIN]	1.75

Tested on: Trametes versicolor
Experiment: Antifungal activity against Trametes versicolor NBRC 30340 assessed as diameter of mycelial growth at 5 ug/cm'2 at 25.5 degC after 5 days
Type: functional

SMILES	Activity
C=C[C@H](c1ccccc1O)c1cc(O)c(OC)cc1OC [LATIFOLIN]	15 mm
C=C[C@H](c1ccccc1OC)c1cc(OC)c(OC)cc1OC [LATIFOLIN DIMETHYL ETHER]	60.8 mm
C=C[C@H](c1ccccc1O)c1cc(OC)c(OC)cc1OC [5-O-METHYLLATIFOLIN]	62.3 mm
C=C[C@@H](c1cc(OC(C)=O)c(OC)cc1OC)c1ccccc1OC(C)=O [LATIFOLIN DIACETATE]	56.2 mm
C=C[C@H](c1ccccc1OC)c1cc(O)c(OC)cc1OC [2'-O-METHYLLATIFOLIN]	60 mm
